In patent US12077503B2, “Substituted cyclic amides and their use as herbicides” (FMC CORPORATION, priority 2015, dated 2024):
Read-outs that look alike come from different tables or passages of the source.

What was measured:
Format in all cases: in vivo
[1] = tested on: ragweed (common ragweed, Ambrosia elatior); assay: Test A postemergence; details: Ambrosia artemisiifolia, post-emergence, 240 h; for pest or weed control at 125 g/ha: 125 g ai/ha
In short: (§1)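 Preemergence soil spray on seeded pots or post-emergence spray on 1–2 leaf plants, in loam–sand blend. Greenhouse ~10 d. Visual rating 0–100 against untreated plants.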

[2] = tested on: giant foxtail (Setaria faberii); assay: Test A postemergence; details: Setaria faberi, post-emergence, 240 h; for pest or weed control at 125 g/ha: 125 g ai/ha
In short: as §1

Kochia (Kochia scoparia) = assay: Test A postemergence; details: Bassia scoparia, post-emergence, 240 h; for pest or weed control at 125 g/ha: 125 g ai/ha
In short: as §1

[3] = tested on: Galium (catchweed bedstraw, Galium aparine); assay: Test A postemergence; details: Galium, post-emergence, 240 h; for pest or weed control at 125 g/ha: 125 g ai/ha
In short: as §1

[4] = tested on: ryegrass, Italian (Italian ryegrass, Lolium multiflorum); assay: Test A postemergence; details: Lolium multiflorum, post-emergence, 240 h; for pest or weed control at 125 g/ha: 125 g ai/ha
In short: as §1

corn (Zea mays) = assay: Test A postemergence; details: Zea mays, post-emergence, 240 h; for Corn plant response rating (crop injury, 0 = no effect, 100 = complete kill) at 125 g/ha: 125 g ai/ha, Postemergence, visual injury after approximately 10 d, 0 to 100 scale where 0 is no effect and 100 is complete control
In short: as §1

[5] = tested on: wheat (Triticum aestivum); assay: Test A postemergence; details: Triticum aestivum, post-emergence, 240 h; for plant injury at 125 g/ha: 125 g ai/ha
In short: as §1

[6] = tested on: blackgrass (Alopecurus myosuroides); assay: Test A postemergence; details: Alopecurus myosuroides, post-emergence, 240 h, read-out: Plant response rating, Blackgrass; for pest or weed control at 125 g/ha: 125 g ai/ha, Postemergence, visual injury after approximately 10 d, 0 to 100 scale where 0 is no effect and 100 is complete control
In short: as §1

[7] = tested on: barnyardgrass (Echinochloa crus-galli); assay: Test A postemergence; details: Echinochloa crus-galli, post-emergence, 240 h, read-out: Plant response rating, Barnyardgrass; for pest or weed control at 125 g/ha: 125 g ai/ha, Postemergence, visual injury after approximately 10 d, 0 to 100 scale where 0 is no effect and 100 is complete control
In short: as §1

[8] = tested on: pigweed (Amaranthus retroflexus); assay: Test A postemergence; details: Amaranthus retroflexus, post-emergence, 240 h; for pest or weed control at 125 g/ha: 125 g ai/ha
In short: as §1

[9] = tested on: pigweed (Amaranthus retroflexus); assay: Test A preemergence; details: Amaranthus retroflexus, pre-emergence, 240 h; for pest or weed control at 125 g/ha: 125 g ai/ha, Preemergence, visual injury rating after approximately 10 d, read-out: Pigweed plant response rating (0 to 100 scale, 0 is no effect, 100 is complete control); for pest or weed control at 500 g/ha: 500 g ai/ha, preemergence, visual injury rating about 10 d after treatment, 0 to 100 scale (0 no effect, 100 complete control), read-out: Pigweed plant response rating
rice (Oryra sativa) = assay: Test B flooded paddy test; details: Oryza sativa, 250 g ai/ha, Flood, read-out: Rice plant response rating
In short: (§2)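 Percent control, visually estimated after 13–15 d in the greenhouse on a 0–100 basis, compares treated pots with untreated ones; compound was put into paddy water 3 cm above the soil when plants had two leaves.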

[10] = tested on: ducksalad (Heteranthera limosa); assay: Test B flooded paddy test; details: Heteranthera limosa, 250 g ai/ha, Flood, read-out: Ducksalad plant response rating
In short: as §2

[11] = tested on: barnyardgrass (Echinochloa crus-galli); assay: Test B flooded paddy test; details: Echinochloa crus-galli, 250 g ai/ha, Flood, read-out: Barnyardgrass plant response rating
In short: as §2

[12] = tested on: sedge, umbrella (small-flower umbrella sedge, Cyperus difformis); assay: Test B flooded paddy test; details: Cyperus difformis, 250 g ai/ha, Flood, read-out: Sedge, Umbrella plant response rating
In short: as §2

[13] = 500 g ai/ha, postemergence, visual injury, 0 to 100 scale (0 no effect, 100 complete control), approx. 10 d
[14] = 0 to 100 scale where 0 is no effect and 100 is complete control
[15] = scale of 0 to 100 where 0 is no effect and 100 is complete control

SMILES: CN1CC[C@H](c2ccccc2)[C@@H](C(=O)Nc2ccccc2F)C1=O [Compound 1032]
- pest or weed control at 125 g/ha ([1]; postemergence, visual injury on 0 to 100 scale (0 no effect, 100 complete control), approx. 10 d, read-out: Ragweed plant response rating): 0%
- pest or weed control at 500 g/ha ([1]; 500 g ai/ha, postemergence, visual injury, 0 to 100 scale (0 no effect, 100 complete control), approx. 10 d, read-out: Plant response rating, Ragweed): 0%
- pest or weed control at 125 g/ha ([2]; postemergence, visual injury on 0 to 100 scale (0 no effect, 100 complete control), approx. 10 d, read-out: Foxtail, Giant plant response rating): 0%
- pest or weed control at 500 g/ha ([2]; 500 g ai/ha, postemergence, visual injury, 0 to 100 scale (0 no effect, 100 complete control), approx. 10 d, read-out: Plant response rating, Foxtail, Giant): 0%
- pest or weed control at 125 g/ha (Kochia (Kochia scoparia); postemergence, visual injury on 0 to 100 scale (0 no effect, 100 complete control), approx. 10 d, read-out: Kochia plant response rating): 0%
- pest or weed control at 500 g/ha (Kochia (Kochia scoparia); 500 g ai/ha, postemergence, visual injury, 0 to 100 scale (0 no effect, 100 complete control), approx. 10 d, read-out: Plant response rating, Kochia): 0%
- pest or weed control at 125 g/ha ([3]; postemergence, visual injury on 0 to 100 scale (0 no effect, 100 complete control), approx. 10 d, read-out: Galium plant response rating): 0%
- pest or weed control at 500 g/ha ([3]; 500 g ai/ha, postemergence, visual injury, 0 to 100 scale (0 no effect, 100 complete control), approx. 10 d, read-out: Plant response rating, Galium): 0%
- pest or weed control at 125 g/ha ([4]; postemergence, visual injury on 0 to 100 scale (0 no effect, 100 complete control), approx. 10 d, read-out: Ryegrass, Italian plant response rating): 0%
- pest or weed control at 500 g/ha ([4]; 500 g ai/ha, postemergence, visual injury, 0 to 100 scale (0 no effect, 100 complete control), approx. 10 d, read-out: Plant response rating, Ryegrass, Italian): 0%
- Corn plant response rating (crop injury, 0 = no effect, 100 = complete kill) at 125 g/ha (corn (Zea mays)): 0%
- Corn plant response rating (crop injury, 0 = no effect, 100 = complete kill) at 500 g/ha (corn (Zea mays); [13]): 0%
- plant injury at 125 g/ha ([5]; postemergence, visual injury on 0 to 100 scale (0 no effect, 100 complete control), approx. 10 d, read-out: Wheat plant response rating): 0%
- plant injury at 500 g/ha ([5]; 500 g ai/ha, postemergence, visual injury, 0 to 100 scale (0 no effect, 100 complete control), approx. 10 d, read-out: Plant response rating, Wheat): 0%
- pest or weed control at 125 g/ha [6]: 0%
- pest or weed control at 500 g/ha [6, 13]: 0%
- pest or weed control at 125 g/ha [7]: 0%
- pest or weed control at 500 g/ha [7, 13]: 0%
- pest or weed control at 125 g/ha ([8]; postemergence, visual injury on 0 to 100 scale (0 no effect, 100 complete control), approx. 10 d, read-out: Pigweed plant response rating): 0%
- pest or weed control at 500 g/ha ([8]; 500 g ai/ha, postemergence, visual injury, 0 to 100 scale (0 no effect, 100 complete control), approx. 10 d, read-out: Plant response rating, Pigweed): 0%
- pest or weed control at 125 g/ha [9]: 0%
- pest or weed control at 500 g/ha [9]: 0%
- pest or weed control at 250 g/ha (rice (Oryra sativa); [14]): 0%
- pest or weed control at 250 g/ha [10, 14]: 20%
- pest or weed control at 250 g/ha [11, 14]: 0%
- pest or weed control at 250 g/ha [12, 14]: 0%

SMILES: CN1C[C@H](c2cc(F)cc(F)c2)[C@@H](C(=O)Nc2ccc(C(F)(F)F)cc2)C1=O [Compound 968]
- pest or weed control at 125 g/ha ([1]; Postemergence, visual injury after approximately 10 d, 0 to 100 scale where 0 is no effect and 100 is complete control, read-out: Plant response rating, Ragweed): 0%
- pest or weed control at 125 g/ha ([2]; Postemergence, visual injury after approximately 10 d, 0 to 100 scale where 0 is no effect and 100 is complete control, read-out: Plant response rating, Foxtail, Giant): 0%
- pest or weed control at 125 g/ha (Kochia (Kochia scoparia); Postemergence, visual injury after approximately 10 d, 0 to 100 scale where 0 is no effect and 100 is complete control, read-out: Plant response rating, Kochia): 0%
- pest or weed control at 125 g/ha ([3]; Postemergence, visual injury after approximately 10 d, 0 to 100 scale where 0 is no effect and 100 is complete control, read-out: Plant response rating, Galium): 0%
- pest or weed control at 125 g/ha ([4]; Postemergence, visual injury after approximately 10 d, 0 to 100 scale where 0 is no effect and 100 is complete control, read-out: Plant response rating, Ryegrass, Italian): 0%
- Corn plant response rating (crop injury, 0 = no effect, 100 = complete kill) at 125 g/ha (corn (Zea mays)): 0%
- plant injury at 125 g/ha ([5]; Postemergence, visual injury after approximately 10 d, 0 to 100 scale where 0 is no effect and 100 is complete control, read-out: Plant response rating, Wheat): 0%
- pest or weed control at 125 g/ha [6]: 0%
- pest or weed control at 125 g/ha [7]: 20%
- pest or weed control at 125 g/ha ([8]; Postemergence, visual injury after approximately 10 d, 0 to 100 scale where 0 is no effect and 100 is complete control, read-out: Plant response rating, Pigweed): 0%
- pest or weed control at 125 g/ha [9]: 0%
- pest or weed control at 500 g/ha [9]: 0%
- pest or weed control at 250 g/ha (rice (Oryra sativa); [15]): 0%
- pest or weed control at 250 g/ha [10, 15]: 30%
- pest or weed control at 250 g/ha [11, 15]: 0%
- pest or weed control at 250 g/ha [12, 15]: 0%
